Assay [1] deals with T1, Mitogen-activated protein kinase 15 (Homo sapiens, UniProt Q8TD08).
T1 sequence (Q8TD08 whole entry): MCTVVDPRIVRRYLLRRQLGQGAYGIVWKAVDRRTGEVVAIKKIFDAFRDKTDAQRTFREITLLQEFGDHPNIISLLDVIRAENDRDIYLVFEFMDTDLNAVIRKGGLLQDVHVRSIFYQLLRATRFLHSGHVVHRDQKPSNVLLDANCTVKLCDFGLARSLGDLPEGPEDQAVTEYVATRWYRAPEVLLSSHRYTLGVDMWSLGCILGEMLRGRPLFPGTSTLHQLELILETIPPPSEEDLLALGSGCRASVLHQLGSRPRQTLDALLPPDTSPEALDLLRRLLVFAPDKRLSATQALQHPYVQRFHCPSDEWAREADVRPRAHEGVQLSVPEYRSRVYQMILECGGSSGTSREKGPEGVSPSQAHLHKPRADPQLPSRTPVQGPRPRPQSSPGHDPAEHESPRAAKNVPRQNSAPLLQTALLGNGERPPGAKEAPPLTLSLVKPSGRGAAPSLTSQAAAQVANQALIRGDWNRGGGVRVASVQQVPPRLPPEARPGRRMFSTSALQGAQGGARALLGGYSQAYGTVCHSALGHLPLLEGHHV

Assay [2] has as its target Cyclin-dependent kinase 12 (Homo sapiens, UniProt Q9NYV4).
Assay [3] addresses T2, Cytochrome c1, heme protein, mitochondrial (Homo sapiens, UniProt P08574).
T2 sequence (P08574 whole entry): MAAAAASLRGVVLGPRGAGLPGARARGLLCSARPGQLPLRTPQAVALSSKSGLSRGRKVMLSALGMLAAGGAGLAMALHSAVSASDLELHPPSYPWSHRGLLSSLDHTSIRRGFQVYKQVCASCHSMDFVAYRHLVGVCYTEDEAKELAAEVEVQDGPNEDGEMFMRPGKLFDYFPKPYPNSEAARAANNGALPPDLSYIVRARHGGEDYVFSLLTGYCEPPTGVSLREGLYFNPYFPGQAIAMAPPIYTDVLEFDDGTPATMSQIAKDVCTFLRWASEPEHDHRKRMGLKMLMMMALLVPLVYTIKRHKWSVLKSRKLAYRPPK

The target of assay [4] is Epithelial discoidin domain-containing receptor 1 (Homo sapiens, UniProt Q08345).
Chain of Epithelial discoidin domain-containing receptor 1 (Q08345 whole entry, the tested form may be a part): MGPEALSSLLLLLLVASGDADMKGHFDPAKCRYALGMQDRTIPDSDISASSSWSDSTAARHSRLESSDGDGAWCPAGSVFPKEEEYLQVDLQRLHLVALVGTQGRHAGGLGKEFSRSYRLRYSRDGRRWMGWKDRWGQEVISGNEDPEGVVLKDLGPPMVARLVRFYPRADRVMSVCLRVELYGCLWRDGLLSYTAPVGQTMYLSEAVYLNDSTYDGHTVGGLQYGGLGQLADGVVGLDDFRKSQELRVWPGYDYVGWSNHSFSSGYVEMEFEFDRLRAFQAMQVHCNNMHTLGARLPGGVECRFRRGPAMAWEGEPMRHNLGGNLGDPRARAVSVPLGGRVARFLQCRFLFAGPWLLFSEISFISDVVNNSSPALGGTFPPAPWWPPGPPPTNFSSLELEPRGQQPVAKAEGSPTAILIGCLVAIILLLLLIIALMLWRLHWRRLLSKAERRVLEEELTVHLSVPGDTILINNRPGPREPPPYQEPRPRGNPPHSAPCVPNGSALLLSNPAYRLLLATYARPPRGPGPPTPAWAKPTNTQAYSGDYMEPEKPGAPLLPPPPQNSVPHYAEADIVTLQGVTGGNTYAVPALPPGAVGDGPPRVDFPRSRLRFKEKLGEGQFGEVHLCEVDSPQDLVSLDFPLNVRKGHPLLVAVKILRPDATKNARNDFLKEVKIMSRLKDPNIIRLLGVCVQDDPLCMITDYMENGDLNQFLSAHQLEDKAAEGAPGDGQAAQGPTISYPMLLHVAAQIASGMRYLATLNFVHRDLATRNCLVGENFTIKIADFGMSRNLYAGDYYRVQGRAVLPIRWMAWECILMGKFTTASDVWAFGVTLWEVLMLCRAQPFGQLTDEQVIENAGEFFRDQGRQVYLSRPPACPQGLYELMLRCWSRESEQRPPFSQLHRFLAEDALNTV
In assay [5] the target is T3, Ephrin type-B receptor 3 (Homo sapiens, UniProt P54753).
T3 sequence (P54753 whole entry): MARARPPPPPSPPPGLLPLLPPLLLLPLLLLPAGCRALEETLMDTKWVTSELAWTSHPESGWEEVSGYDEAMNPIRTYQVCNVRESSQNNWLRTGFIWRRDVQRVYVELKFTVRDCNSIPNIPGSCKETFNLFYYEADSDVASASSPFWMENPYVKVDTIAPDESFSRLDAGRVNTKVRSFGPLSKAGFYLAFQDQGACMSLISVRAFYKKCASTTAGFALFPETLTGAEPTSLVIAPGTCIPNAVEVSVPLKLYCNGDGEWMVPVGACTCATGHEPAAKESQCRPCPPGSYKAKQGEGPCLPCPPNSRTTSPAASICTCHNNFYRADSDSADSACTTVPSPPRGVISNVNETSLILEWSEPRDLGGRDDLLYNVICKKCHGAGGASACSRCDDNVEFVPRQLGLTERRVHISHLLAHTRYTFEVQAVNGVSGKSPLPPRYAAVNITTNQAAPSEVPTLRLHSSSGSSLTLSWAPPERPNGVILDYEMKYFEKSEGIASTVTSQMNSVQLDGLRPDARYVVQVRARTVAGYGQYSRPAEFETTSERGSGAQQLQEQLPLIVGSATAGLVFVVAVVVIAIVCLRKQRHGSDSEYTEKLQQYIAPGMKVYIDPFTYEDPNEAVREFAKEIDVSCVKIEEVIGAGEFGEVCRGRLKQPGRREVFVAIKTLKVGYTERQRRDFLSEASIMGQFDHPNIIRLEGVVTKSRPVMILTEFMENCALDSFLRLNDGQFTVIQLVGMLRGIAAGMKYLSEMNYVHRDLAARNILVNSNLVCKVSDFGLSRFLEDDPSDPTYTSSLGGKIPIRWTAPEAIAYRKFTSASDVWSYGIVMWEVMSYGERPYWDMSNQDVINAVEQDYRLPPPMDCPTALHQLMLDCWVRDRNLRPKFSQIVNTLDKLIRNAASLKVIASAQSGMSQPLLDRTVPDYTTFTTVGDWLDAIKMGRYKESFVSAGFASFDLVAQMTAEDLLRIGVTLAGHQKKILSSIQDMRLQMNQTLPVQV

Assay [6] addresses T4, Serine/threonine-protein kinase 4 (Homo sapiens, UniProt Q13043).
T4 sequence (Q13043 whole entry): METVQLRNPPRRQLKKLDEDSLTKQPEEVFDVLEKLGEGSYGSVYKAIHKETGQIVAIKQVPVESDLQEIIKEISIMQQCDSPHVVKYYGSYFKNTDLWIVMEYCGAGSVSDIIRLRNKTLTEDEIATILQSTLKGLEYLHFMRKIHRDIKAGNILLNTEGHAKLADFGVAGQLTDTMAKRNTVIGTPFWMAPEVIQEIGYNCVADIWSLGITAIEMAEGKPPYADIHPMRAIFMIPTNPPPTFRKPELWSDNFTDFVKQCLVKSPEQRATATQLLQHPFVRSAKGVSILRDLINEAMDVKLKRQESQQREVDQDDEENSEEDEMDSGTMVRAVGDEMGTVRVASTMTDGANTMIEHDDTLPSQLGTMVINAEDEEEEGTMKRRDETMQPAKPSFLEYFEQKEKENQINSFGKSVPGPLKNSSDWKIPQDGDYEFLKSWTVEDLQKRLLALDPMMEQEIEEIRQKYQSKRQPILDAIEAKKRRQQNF

Activity calls are given as the source filed them. Cut-off read from the data, not from the text of the source, for most assays here: actives have a measured Kd and inactives only a lower limit. Some results are limits rather than exact numbers.
Note: in the data inactive means no Kd found up to 30 µM.

Chain of Cyclin-dependent kinase 12 (Q9NYV4 whole entry): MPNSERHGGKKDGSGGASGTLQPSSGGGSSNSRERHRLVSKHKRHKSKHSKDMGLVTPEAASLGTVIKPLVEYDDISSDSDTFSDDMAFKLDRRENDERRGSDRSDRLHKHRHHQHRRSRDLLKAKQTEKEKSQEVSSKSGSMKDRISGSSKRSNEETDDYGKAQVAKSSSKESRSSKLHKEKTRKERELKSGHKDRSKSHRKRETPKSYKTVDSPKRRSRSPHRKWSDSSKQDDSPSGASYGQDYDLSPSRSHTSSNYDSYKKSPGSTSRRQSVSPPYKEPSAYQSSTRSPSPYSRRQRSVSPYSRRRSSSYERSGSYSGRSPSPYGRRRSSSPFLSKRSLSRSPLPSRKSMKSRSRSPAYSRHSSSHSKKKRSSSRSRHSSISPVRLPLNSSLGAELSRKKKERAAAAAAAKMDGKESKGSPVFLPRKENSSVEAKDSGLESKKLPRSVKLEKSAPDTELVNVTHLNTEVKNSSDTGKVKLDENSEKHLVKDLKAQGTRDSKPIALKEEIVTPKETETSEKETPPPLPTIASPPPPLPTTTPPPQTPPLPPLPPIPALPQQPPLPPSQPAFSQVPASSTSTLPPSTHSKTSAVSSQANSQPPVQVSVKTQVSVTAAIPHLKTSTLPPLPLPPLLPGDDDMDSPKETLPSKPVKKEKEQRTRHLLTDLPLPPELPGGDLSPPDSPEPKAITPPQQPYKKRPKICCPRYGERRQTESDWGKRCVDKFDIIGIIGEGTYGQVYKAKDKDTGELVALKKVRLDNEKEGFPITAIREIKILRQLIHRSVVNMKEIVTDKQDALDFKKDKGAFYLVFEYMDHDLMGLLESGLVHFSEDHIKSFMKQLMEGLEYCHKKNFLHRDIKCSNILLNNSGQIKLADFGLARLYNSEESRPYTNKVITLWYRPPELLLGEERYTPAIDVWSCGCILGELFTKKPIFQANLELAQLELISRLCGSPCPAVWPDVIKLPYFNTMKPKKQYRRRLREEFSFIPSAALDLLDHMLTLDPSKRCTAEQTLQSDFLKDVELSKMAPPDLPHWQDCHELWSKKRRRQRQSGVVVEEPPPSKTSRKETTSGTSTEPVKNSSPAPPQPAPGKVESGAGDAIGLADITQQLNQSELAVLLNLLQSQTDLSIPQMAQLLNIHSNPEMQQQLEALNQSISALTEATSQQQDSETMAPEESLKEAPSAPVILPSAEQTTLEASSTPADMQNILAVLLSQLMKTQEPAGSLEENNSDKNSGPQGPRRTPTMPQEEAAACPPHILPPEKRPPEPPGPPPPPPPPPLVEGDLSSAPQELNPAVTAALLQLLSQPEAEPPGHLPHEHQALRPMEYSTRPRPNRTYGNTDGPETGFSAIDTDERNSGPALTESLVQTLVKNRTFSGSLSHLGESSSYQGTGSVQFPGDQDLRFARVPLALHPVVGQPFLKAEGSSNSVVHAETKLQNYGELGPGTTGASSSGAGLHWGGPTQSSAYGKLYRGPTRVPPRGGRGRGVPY

Usually Kd stands for the free concentration of one partner at which half of the binding sites on the other are occupied at equilibrium, for simple one-to-one binding. Consider `N[C@@H]1CCCN(c2c(/C=C3\SC(=O)NC3=O)cccc2-c2ccccc2)C1`, for which the Kd in assay [1], in assay [2], in assay [3], in assay [4], in assay [5] and in assay [6] was > 30 µM (inactive) in each case.
With `CCN1CCN(Cc2ccc(-c3cc4c(N[C@H](C)c5ccccc5)ncnc4[nH]3)cc2)CC1` [AEE-788], the Kd in assay [1] is > 30 µM (inactive); in assay [2] it was > 30 µM (inactive); in assay [3], > 30 µM (inactive); in assay [4], 5.22 µM (active); in assay [5], > 30 µM (inactive); in assay [6] it was > 30 µM (inactive).
Consider `C[C@@H]1CN(Cc2ccc(F)cc2)[C@@H](C)CN1C(=O)c1cc2c(C(=O)C(=O)N(C)C)cn(C)c2cc1Cl` [TALMAPIMOD], for which the Kd in assay [1], in assay [2], in assay [3], in assay [4], in assay [5] and in assay [6] was > 30 µM (inactive) each time.
As to `O=C(Nc1ccc(-c2ccnc(Nc3ccc(N4CCOCC4)cc3)n2)cc1)C1CCCN1` (configuration not stated) [XL-019], the Kd in assay [1], in assay [2], in assay [3], in assay [4], in assay [5] and in assay [6] was > 30 µM (inactive) in each case.
Regarding `CN1CCC(COc2cnc(-c3cccc(Cn4nc(-c5cccc(C#N)c5)ccc4=O)c3)nc2)CC1` [TEPOTINIB], the Kd in assay [1], in assay [2], in assay [3], in assay [4], in assay [5] and in assay [6] was > 30 µM (inactive) in each case.
`COc1cc2nccc(Oc3ccc(NC(=O)NC4CC4)c(Cl)c3)c2cc1C(N)=O` [LENVATINIB]: the Kd was > 30 µM (inactive) in assay [1]; > 30 µM (inactive) in assay [2]; > 30 µM (inactive) in assay [3]; 0.046 µM (active) in assay [4]; > 30 µM (inactive) in assay [5]; > 30 µM (inactive) in assay [6].
For the molecule `CCn1c(=O)c(-c2cc[nH]n2)cc2c(C)nc(N)nc21` [VOXTALISIB], the Kd in assay [1], in assay [2], in assay [3], in assay [4], in assay [5] and in assay [6] was > 30 µM (inactive) in each case.
As to `Cn1cc(-c2ccc(F)c(C(F)(F)F)c2)nc1C1CCN(c2ncnc3[nH]ncc23)CC1` [LY-2584702], the Kd in assay [1], in assay [2], in assay [3], in assay [4], in assay [5] and in assay [6] was > 30 µM (inactive) throughout.
As to `Cc1cc2c(F)c(Oc3ncnn4cc(OC[C@@H](C)OC(=O)[C@H](C)N)c(C)c34)ccc2[nH]1` [BRIVANIB ALANINATE], the Kd in assay [1] was > 30 µM (inactive); in assay [2] it was > 30 µM (inactive); in assay [3] it was > 30 µM (inactive); in assay [4], 1.04 µM (active); in assay [5], > 30 µM (inactive); in assay [6], > 30 µM (inactive).
As to `CNC(=O)c1ccc(C)c(-n2c(C)cc(OCc3ccc(F)cc3F)c(Br)c2=O)c1` [PH-797804], the Kd in assay [1], in assay [2], in assay [3], in assay [4], in assay [5] and in assay [6] was > 30 µM (inactive) in each case.
`CNC(=O)c1cc(Oc2ccc(NC(=O)Nc3ccc(Cl)c(C(F)(F)F)c3)c(F)c2)ccn1` [REGORAFENIB]: the Kd in assay [1] was > 30 µM (inactive); in assay [2], > 30 µM (inactive); in assay [3], > 30 µM (inactive); in assay [4], 0.358 µM (active); in assay [5] it was > 30 µM (inactive); in assay [6], > 30 µM (inactive).
With `COC(=O)N[C@@H](C)CNc1nccc(-c2cn(C(C)C)nc2-c2cc(Cl)cc(NS(C)(=O)=O)c2F)n1` [ENCORAFENIB], the Kd in assay [1], in assay [2], in assay [3], in assay [4], in assay [5] and in assay [6] was > 30 µM (inactive) in each case.
Take `Cc1c(F)cc(C(=O)NC2CC2)cc1-c1ccc(C(=O)NCC(C)(C)C)cn1` [LOSMAPIMOD]: the Kd in assay [1], in assay [2], in assay [3], in assay [4], in assay [5] and in assay [6] was > 30 µM (inactive) throughout.
For the molecule `Cc1cc(-c2cc(O)ccc2Cl)cc2nnc(Nc3ccc(OCCN4CCCC4)cc3)nc12`, the Kd in assay [1] was > 30 µM (inactive); in assay [2], > 30 µM (inactive); in assay [3], > 30 µM (inactive); in assay [4], 0.003 µM (active); in assay [5], 0.002 µM (active); in assay [6], > 30 µM (inactive).
As to `C=CC(=O)N1CCC(Oc2cc3c(Nc4ccc(Cl)c(Cl)c4F)ncnc3cc2OC)CC1` [POZIOTINIB], the Kd in assay [1], in assay [2], in assay [3], in assay [4], in assay [5] and in assay [6] was > 30 µM (inactive) each time.
Take `O=C1NC(=O)/C(=C/c2ccc3nccc(-c4ccncc4)c3c2)S1` [GSK-1059615]: the Kd in assay [1], in assay [2], in assay [3], in assay [4], in assay [5] and in assay [6] was > 30 µM (inactive) each time.
Regarding `CC[C@@H]1C(=O)N(C)c2cnc(Nc3ccc(C(=O)N[C@H]4CC[C@H](N5CCN(CC6CC6)CC5)CC4)cc3OC)nc2N1C(C)C` [VOLASERTIB], the Kd in assay [1], in assay [2], in assay [3], in assay [4], in assay [5] and in assay [6] was > 30 µM (inactive) each time.

The values are drawn from ChEMBL document CHEMBL3991601, “The target landscape of clinical kinase drugs” (Science, 2017).
